Measurements taken from publication PMC4256409, “Role of Phenylalanine and Valine^10 Residues in the Antimicrobial Activity and Cytotoxicity of Piscidin-1” (PLoS ONE, 2014).
Where no end group is shown, it is not given here.

Tests used:
[1] = system: human red blood cells (hRBCs); experiment: Hemolysis; assay type: cell-based
Description: The hemolytic ability of the peptides was tested using hRBCs. FreshhRBCs were washed three times with phosphate-buffered saline (PBS) (35 mM phosphate buffer containing 150 mM NaCl, pH 7.4), centrifuged for 10 min at 1000×g, and resuspended in PBS. The peptide solutions were then added to 50 µL of hRBCs in PBS to yield a final volume of 100 µL and a final erythrocyte concentration of 4% (v/v). The resulting suspension was incubated with agitation for 1 h at 37°C. The samples were centrifuged at 1000×g for 5 min. Hemoglobin release was monitored by measuring the absorbance of the supernatant at 405 nm. Controls for zero hemolysis (blank) and 100% hemolysis consisted of hRBCs suspended in PBS and 0.1% Triton-X 100, respectively. The percentage of hemolysis was calculated using the following equation: [drawing 1]

NIH3T3 cells = experiment: Cytotoxicity, MTT assay; assay type: cell-based, mouse; settings: 1 d
Description: The mouse embryonic fibroblast-derived cell line NIH3T3 was purchased from the American Type Culture Collection (Manassas, VA). Cells were cultured in Dulbecco’s modified Eagle medium (DMEM) supplemented with 10% fetal bovine serum (FBS) and antibiotic solution (100 units/mL penicillin and 100 µg/mL streptomycin) at 37°C in a humidified 5% CO2 atmosphere. Cultures were passaged every 2–3 days by brief trypsin treatment and visualized with an inverted microscope. The cytotoxicity of peptides against mammalian cells was determined using a 3-(4,5-dimethylthiazol-2-yl)-2,5-diphynyltetrazolium bromide (MTT) assay. Cells were seeded on 96-well microplates at a density of 1×10^4 cells/well in 100 µL of DMEM containing 10% FBS and 1% antibiotics, and […]. Plates were incubated for 24 h at 37°C in 5% CO2. Serial 2-fold dilutions of peptide solutions (100 µL) in DMEM were added; wells containing cells without peptides served as controls. After incubating plates for 1 d, 20 µL of MTT solution (5 mg/mL) was added to each well, and the plates were incubated for an additional 4 h at 37°C. Precipitated MTT formazan was dissolved by adding 100 µL of dimethyl sulfoxide. Absorbance at 570 nm was measured using an enzyme-linked immunosorbent assay (ELISA) reader (Molecular Devices; Sunnyvale, CA). Cell survival, expressed as a percentage, was calculated as the ratio of A570 for cells treated with peptide to that of cells without peptide treatment.

S. aureus KCTC1621 = assay type: cell-based, Staphylococcus aureus; settings: KCTC1621, 16 h
MRSA CCARM 3126 = assay type: cell-based, Methicillin-resistant S. aureus; settings: CCARM 3126, 16 h
E.coli KCTC2571 = assay type: cell-based, Escherichia coli; settings: KCTC2571, 16 h
P. aeruginosa KCTC1637 = assay type: cell-based, Pseudomonas aeruginosa; settings: KCTC1637, 16 h
MRSA CCARM 3114 = assay type: cell-based, Methicillin-resistant S. aureus; settings: CCARM 3114, 16 h
E. coli KCTC2593 = assay type: cell-based, Escherichia coli; settings: KCTC2593, 16 h
B. subtilis KCTC3068 = assay type: cell-based, Bacillus subtilis; settings: KCTC3068, 16 h
MDRPA CCARM 2163 = assay type: cell-based, multidrug-resistant P. aeruginosa; settings: broth microdilution, 37°C, 16 h, three independent experiments in triplicate, SD 14.0%
B. subtilis KCTC1022 = assay type: cell-based, Bacillus subtilis; settings: KCTC1022, 16 h
B. subtilis KCTC1021 = assay type: cell-based, Bacillus subtilis; settings: KCTC1021, 16 h
MDRAB CCARM 12036 = assay type: cell-based, multidrug-resistant Acinetobacter baumanii; settings: broth microdilution, 37°C, 16 h, three independent experiments in triplicate, SD 14.0%
E. coli KCTC1682 = assay type: cell-based, Escherichia coli; settings: KCTC1682, 16 h
S. aureus KCTC3881 = assay type: cell-based, Staphylococcus aureus; settings: KCTC3881, 16 h
P. aeruginosa KCTC2513 = assay type: cell-based, Pseudomonas aeruginosa; settings: KCTC2513, 16 h
MDREC CCARM 1229 = assay type: cell-based, multidrug-resistant E. coli; settings: broth microdilution, 37°C, 16 h, three independent experiments in triplicate, SD 14.0%
MDRPA CCARM 2095 = assay type: cell-based, multidrug-resistant P. aeruginosa; settings: broth microdilution, 37°C, 16 h, three independent experiments in triplicate, SD 14.0%
MDRAB CCARM 12005 = assay type: cell-based, multidrug-resistant Acinetobacter baumanii; settings: broth microdilution, 37°C, 16 h, three independent experiments in triplicate, SD 14.0%
MDRAB CCARM 12035 = assay type: cell-based, multidrug-resistant Acinetobacter baumanii; settings: broth microdilution, 37°C, 16 h, three independent experiments in triplicate, SD 14.0%
MDRST CCARM 8007 = assay type: cell-based, multidrug-resistant S. typhimurium; settings: broth microdilution, 37°C, 16 h, three independent experiments in triplicate, SD 14.0%
MDRPA CCARM 2003 = assay type: cell-based, multidrug-resistant P. aeruginosa; settings: broth microdilution, 37°C, 16 h, three independent experiments in triplicate, SD 14.0%
MDRST CCARM 8009 = assay type: cell-based, multidrug-resistant S. typhimurium; settings: broth microdilution, 37°C, 16 h, three independent experiments in triplicate, SD 14.0%
MDRAB CCARM 12037 = assay type: cell-based, multidrug-resistant Acinetobacter baumanii; settings: broth microdilution, 37°C, 16 h, three independent experiments in triplicate, SD 14.0%
MDRPA CCARM 2002 = assay type: cell-based, multidrug-resistant P. aeruginosa; settings: broth microdilution, 37°C, 16 h, three independent experiments in triplicate, SD 14.0%
P. aeruginosa KCTC2004 = assay type: cell-based, Pseudomonas aeruginosa; settings: KCTC2004, 16 h
S. typhimurium KCTC1926 = assay type: cell-based, Salmonella typhimurium; settings: KCTC1926, 16 h
S. aureus KCTC1916 = assay type: cell-based, Staphylococcus aureus; settings: KCTC1916, 16 h
MRSA CCARM3089 = assay type: cell-based, Methicillin-resistant S. aureus; settings: CCARM3089, 16 h
MRSA CCARM 3090 = assay type: cell-based, Methicillin-resistant S. aureus; settings: CCARM 3090, 16 h
[2] = system: Standard bacterial strains; assay type: cell-based; settings: average over the 14 standard bacterial strains of Table 2
MRSA CCARM 3108 = assay type: cell-based, Methicillin-resistant S. aureus; settings: CCARM 3108, 16 h
MDREC CCARM 1238 = assay type: cell-based, multidrug-resistant E. coli; settings: broth microdilution, 37°C, 16 h, three independent experiments in triplicate, SD 14.0%
[3] = system: Drug-resistant bacterial strains; settings: average over the 18 drug-resistant bacterial strains of Table 3
From the text: Escherichia coli KCTC 1682, E. coli KCTC 2593, E. coli KCTC 2571, Salmonella typhimurium KCTC 1926, Pseudomonas aeruginosa KCTC 1637, P. aeruginosa KCTC 2004, P. aeruginosa KCTC 2513, Bacillus subtilis KCTC 3068, B. subtilis KCTC 1021, B. subtilis KCTC 1022, Staphylococcus epidermidis KCTC 1917, Staphylococcus aureus KCTC 1621, S. aureus KCTC 1916, and S. aureus KCTC 3881 were purchased from the Korean Collection for Type Cultures, Korea Research Institute of Bioscience & Biotechnology (Taejon, Korea). Methicillin-resistant S. aureus (MRSA) (CCARM 3089, CCARM 3090, CCARM 3108, CCARM 3114, and CCARM 3126), multidrug-resistant E. coli (MDREC) (CCARM 1229 and CCARM 1238), multidrug-resistant S. typhimurium (MDRST) (CCARM 8003, CCARM 8007, and CCARM 8009), multidrug-resistant Acinetobacter baumanii (MDRAB) (CCARM 12005, CCARM 12035, CCARM 12036, CCARM 12037), and multidrug-resistant P. aeruginosa (MDRPA) (CCARM 2002, CCARM 2003, CCARM 2095, and CCARM 2163) were obtained from the Culture Collection of Antibiotic-Resistant Microbes (CCARM) at Seoul Women’s University in Korea. The antimicrobial activities of the peptides against selected organisms, including three Gram-positive, three Gram-negative, and five antibiotic-resistant bacteria, were determined using a broth microdilution assay. Briefly, single colonies of bacteria and fungi were inoculated into Luria-Bertani (LB) medium and cultured overnight at 37°C. An aliquot of the culture was transferred to 10 mL of fresh LB and incubated for an additional 3–5 h at 37°C until it reached the mid-logarithmic phase. Two-fold serial dilutions of the peptides in 1% peptone were prepared. The serial dilutions (100 µL) were added to 100 µL of cells (2×10^6 colony-forming units (CFU)/mL) in 96-well microtiter plates and incubated at 37°C for 16 h. […] MIC values were calculated as the average of triplicate measurements from three independent assays.

S. epidermidis KCTC1917 = assay type: cell-based, Staphylococcus epidermidis; settings: KCTC1917, 16 h
MDRST CCARM 8003 = assay type: cell-based, multidrug-resistant S. typhimurium; settings: broth microdilution, 37°C, 16 h, three independent experiments in triplicate, SD 14.0%

Sequence | MIC (S. aureus KCTC1621) | MIC (MRSA CCARM 3126) | MIC (E.coli KCTC2571) | MIC (P. aeruginosa KCTC1637) | MIC (MRSA CCARM 3114) | MIC (E. coli KCTC2593) | MIC (B. subtilis KCTC3068) | MIC (MDRPA CCARM 2163) | MIC (B. subtilis KCTC1022) | MIC (B. subtilis KCTC1021) | MIC (MDRAB CCARM 12036) | MIC (E. coli KCTC1682) | MIC (S. aureus KCTC3881) | MIC (P. aeruginosa KCTC2513) | MIC (MDREC CCARM 1229) | MIC (MDRPA CCARM 2095) | MIC (MDRAB CCARM 12005) | MIC (MDRAB CCARM 12035) | MIC (MDRST CCARM 8007) | MIC (MDRPA CCARM 2003) | also measured
FFHHIFRGIVHVGKTIHRLVTG [Pis-1, reference compound] |  |  |  |  |  |  |  |  |  |  |  |  |  |  |  |  |  |  |  |  | MHC (minimal peptide concentration that produced hemolysis) ([1]; pH 7.4): 1.6 µM; Hemolysis ([1]; peptide at its MIC, hRBCs): produced hemolysis even at its MIC; Survival rate of NIH3T3 cells (NIH3T3 cells; 6.25 µM peptide): 64%; Survival rate of NIH3T3 cells (NIH3T3 cells; 12.5 µM peptide): 49%; Survival rate of NIH3T3 cells (NIH3T3 cells; 25 µM peptide): 37%; Survival rate of NIH3T3 cells (NIH3T3 cells; 50 µM peptide): 11%
KFHHIFRGIKHVGKTIHRLVTG [Pis-F1K/V10K] | 2.0 µM | 4.0 µM | 2.0 µM | 1.0 µM | 8.0 µM | 2.0 µM | 1.0 µM | 2.0 µM | 2.0 µM | 4.0 µM | 2.0 µM | 1.0 µM | 2.0 µM | 2.0 µM | 4.0 µM | 2.0 µM | 2.0 µM | 2.0 µM | 8.0 µM | 2.0 µM | MIC (MDRST CCARM 8009): 8.0 µM; MIC (MDRAB CCARM 12037): 2.0 µM; MIC (MDRPA CCARM 2002): 2.0 µM; MIC (P. aeruginosa KCTC2004): 2.0 µM; MIC (S. typhimurium KCTC1926): 1.0 µM; MIC (S. aureus KCTC1916): 2.0 µM; MIC (MRSA CCARM3089): 4.0 µM; MIC (MRSA CCARM 3090): 4.0 µM; Average MIC [2]: 1.8 µM; MIC (MRSA CCARM 3108): 4.0 µM; MIC (MDREC CCARM 1238): 4.0 µM; Average MIC [3]: 4.0 µM; MIC (S. epidermidis KCTC1917): 1.0 µM; MIC (MDRST CCARM 8003): 8.0 µM
KFHHIFRGIVHVGKTIHRLVTG [Pis-F1K] | 2.0 µM | 8.0 µM | 2.0 µM | 4.0 µM | 8.0 µM | 2.0 µM | 2.0 µM | 2.0 µM | 1.0 µM | 2.0 µM | 2.0 µM | 4.0 µM | 2.0 µM | 4.0 µM | 8.0 µM | 2.0 µM | 2.0 µM | 2.0 µM | 4.0 µM | 2.0 µM | MIC (MDRST CCARM 8009): 4.0 µM; MIC (MDRAB CCARM 12037): 2.0 µM; MIC (MDRPA CCARM 2002): 2.0 µM; MIC (P. aeruginosa KCTC2004): 4.0 µM; MIC (S. typhimurium KCTC1926): 4.0 µM; MIC (S. aureus KCTC1916): 2.0 µM; MIC (MRSA CCARM3089): 8.0 µM; MIC (MRSA CCARM 3090): 8.0 µM; Average MIC [2]: 2.6 µM; MIC (MRSA CCARM 3108): 8.0 µM; MIC (MDREC CCARM 1238): 8.0 µM; Average MIC [3]: 4.7 µM; MIC (S. epidermidis KCTC1917): 2.0 µM; MIC (MDRST CCARM 8003): 4.0 µM
